Test results as given in PubChem BioAssay AID248 (DTP/NCI, 2004).
Several values for one entry are separate records, joined by “and”; a condition that tells them apart may be missing. Equal values may be shown once. Toxic doses and inconclusive results are not listed. Cut-off read from the data, not from the text of the source: active = T/C of 150% or more; inactive = T/C below 125%.

System: L1210 leukemia ip in BDF1 mice, survival T/C
Experiment: NCI In Vivo Anticancer Drug Screen. Data for tumor model L1210 Leukemia (intraperitoneal) in B6D2F1 (BDF1) mice
Conditions: endpoint: mean survival time, higher = longer survival
In short: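 Survival endpoint. Drug-treated group vs vehicle group, expressed as T divided by C. Tumor passaged by transplantation.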

[1] = dose: 200.0 mg/kg/injection, schedule: Q04DX003 (ip), vehicle: saline with Tween-80
[2] = dose: 400.0 mg/kg/injection, schedule: Q04DX003 (ip), vehicle: saline with Tween-80
[3] = dose: 100.0 mg/kg/injection, schedule: Q01DX009 (ip), vehicle: Klucel (hydroxypropylcellulose) (HPC)
[4] = dose: 100.0 mg/kg/injection, schedule: Q04DX003 (ip), vehicle: Klucel (hydroxypropylcellulose) (HPC)
[5] = dose: 200.0 mg/kg/injection, schedule: Q01DX009 (ip), vehicle: Klucel (hydroxypropylcellulose) (HPC)
[6] = dose: 200.0 mg/kg/injection, schedule: Q04DX003 (ip), vehicle: Klucel (hydroxypropylcellulose) (HPC)
[7] = dose: 400.0 mg/kg/injection, schedule: Q04DX003 (ip), vehicle: Klucel (hydroxypropylcellulose) (HPC)
[8] = dose: 25.0 mg/kg/injection, schedule: Q04DX002 (ip), vehicle: saline
[9] = dose: 50.0 mg/kg/injection, schedule: Q04DX002 (ip), vehicle: saline
[10] = dose: 100.0 mg/kg/injection, schedule: Q04DX002 (ip), vehicle: saline
[11] = dose: 100.0 mg/kg/injection, schedule: Q01DX001 (ip), vehicle: saline
[12] = dose: 200.0 mg/kg/injection, schedule: Q01DX001 (ip), vehicle: saline
[13] = dose: 400.0 mg/kg/injection, schedule: Q01DX001 (ip), vehicle: saline
[14] = dose: 100.0 mg/kg/injection, schedule: Q04DX002 (ip), vehicle: saline with Tween-80
[15] = dose: 50.0 mg/kg/injection, schedule: Q04DX002 (ip), vehicle: saline with Tween-80

Measured: T/C

CCNC(=O)c1ccc2c(c1NCC)C(=O)c1ccccc1C2=O
inactive: dose: 75.0 mg/kg/injection, schedule: Q01DX001 (ip), vehicle: acetone 98 % of control | dose: 150.0 mg/kg/injection, schedule: Q01DX001 (ip), vehicle: acetone 104 % of control | dose: 300.0 mg/kg/injection, schedule: Q01DX001 (ip), vehicle: acetone 104 % of control

CCOC(=O)c1c[nH]n2c(=S)ncnc12
inactive: dose: 100.0 mg/kg/injection, schedule: Q01DX009 (ip), vehicle: saline with Tween-80 96 % of control | dose: 100.0 mg/kg/injection, schedule: Q04DX003 (ip), vehicle: saline with Tween-80 98 % of control | dose: 200.0 mg/kg/injection, schedule: Q01DX009 (ip), vehicle: saline with Tween-80 97 % of control | [1] 104 % of control | [2] 102 % of control

COc1ccc(C=C2C3C=CC2C2C(=O)OC(=O)C32)cc1 (configuration not stated)
inactive: [3] 101 % of control | [4] 99 % of control | [5] 97 % of control | [6] 99 % of control | [7] 89 % of control

CCC(C)[P+](c1ccccc1)(c1ccccc1)c1ccccc1 (configuration not stated)
inactive: dose: 3.75 mg/kg/injection, schedule: Q01DX001 (ip), vehicle: carboxymethylcellulose (CMC) 118 % of control | dose: 7.0 mg/kg/injection, schedule: Q01DX015 (ip), vehicle: carboxymethylcellulose (CMC) 118 % of control | dose: 7.5 mg/kg/injection, schedule: Q01DX001 (ip), vehicle: carboxymethylcellulose (CMC) 118 % of control | dose: 12.5 mg/kg/injection, schedule: Q04DX002 (ip), vehicle: Klucel (hydroxypropylcellulose) (HPC) 109 % of control | dose: 14.0 mg/kg/injection, schedule: Q01DX015 (ip), vehicle: carboxymethylcellulose (CMC) 120 % of control | dose: 15.0 mg/kg/injection, schedule: Q01DX001 (ip), vehicle: carboxymethylcellulose (CMC) 119 % of control | dose: 25.0 mg/kg/injection, schedule: Q04DX002 (ip), vehicle: Klucel (hydroxypropylcellulose) (HPC) 91 % of control

OCC1C2CCC(O2)C1CO (configuration not stated)
inactive: dose: 0.75 mg/kg/injection, schedule: Q04DX002 (ip), vehicle: saline 96 % of control | dose: 1.5 mg/kg/injection, schedule: Q04DX002 (ip), vehicle: saline 93 % of control and 110 % of control | dose: 3.0 mg/kg/injection, schedule: Q04DX002 (ip), vehicle: saline 96 % of control | dose: 6.0 mg/kg/injection, schedule: Q04DX002 (ip), vehicle: saline 101 % of control and 115 % of control | dose: 12.5 mg/kg/injection, schedule: Q04DX002 (ip), vehicle: saline 101 % of control | [8] 108 % of control | [9] 111 % of control | [10] 105 % of control

O=C1/C(=C\c2ccccc2)C(Br)c2ccccc21 (configuration not stated)
inactive: dose: 12.5 mg/kg/injection, schedule: Q01DX009 (ip), vehicle: water 95 % of control | dose: 12.5 mg/kg/injection, schedule: Q04DX003 (ip), vehicle: water 100 % of control | dose: 25.0 mg/kg/injection, schedule: Q01DX009 (ip), vehicle: water 97 % of control | dose: 25.0 mg/kg/injection, schedule: Q04DX003 (ip), vehicle: water 91 % of control | dose: 50.0 mg/kg/injection, schedule: Q01DX009 (ip), vehicle: water 100 % of control | dose: 50.0 mg/kg/injection, schedule: Q04DX003 (ip), vehicle: water 92 % of control

Cc1c(C=O)[nH]c(=O)[nH]c1=O
inactive: [11] 90 % of control | [12] 102 % of control | [13] 96 % of control

N=C1N=C(N)C(CCCOc2cc(Cl)ccc2Cl)(CCCOc2cc(Cl)ccc2Cl)C(N)=N1
inactive: [4] 94 % of control | [6] 106 % of control | [7] 87 % of control

CCc1cccc(CC)c1NC(=S)NN
inactive: [14] 103 % of control

Cc1cnc(C)c(C(O)c2ccccc2)n1 (configuration not stated)
inactive: dose: 50.0 mg/kg/injection, schedule: Q01DX001 (ip), vehicle: saline 98 % of control | [11] 98 % of control | [12] 112 % of control | [13] 106 % of control

NC(=O)C1(C(N)=O)CCC1
inactive: [3] 105 % of control | [5] 105 % of control | dose: 400.0 mg/kg/injection, schedule: Q01DX009 (ip), vehicle: Klucel (hydroxypropylcellulose) (HPC) 106 % of control

COc1ccc(P(=NS(=O)(=O)c2ccc(C)cc2)(c2ccc(OC)cc2)c2ccc(OC)cc2)cc1
inactive: [4] 91 % of control | [6] 96 % of control

O=C(O)C12CC=CCC1(C(=O)O)CC=CC2 (configuration not stated)
inactive: dose: 50.0 mg/kg/injection, schedule: Q01DX001 (ip), vehicle: carboxymethylcellulose (CMC) 96 % of control | dose: 100.0 mg/kg/injection, schedule: Q01DX001 (ip), vehicle: carboxymethylcellulose (CMC) 98 % of control | dose: 200.0 mg/kg/injection, schedule: Q01DX001 (ip), vehicle: carboxymethylcellulose (CMC) 102 % of control | dose: 400.0 mg/kg/injection, schedule: Q01DX001 (ip), vehicle: carboxymethylcellulose (CMC) 98 % of control

Cc1[nH]ccc2c(C)c3nc4c5ccccc5ccc4c3cc12
inactive: dose: 60.0 mg/kg/injection, schedule: Q01DX Z (ip), vehicle: carboxymethylcellulose (CMC) 98 % of control | dose: 120.0 mg/kg/injection, schedule: Q01DX Z (ip), vehicle: carboxymethylcellulose (CMC) 98 % of control | dose: 240.0 mg/kg/injection, schedule: Q01DX Z (ip), vehicle: carboxymethylcellulose (CMC) 90 % of control

COC(=O)C(NC(=O)C(C)NC(=O)c1cnc2ccccc2n1)C(C)C (configuration not stated)
inactive: [11] 91 % of control | [12] 98 % of control

CCOC(=O)c1ncn(C2OC(CO)C(O)C2O)c1N (configuration not stated)
inactive: dose: 12.5 mg/kg/injection, schedule: Q01DX005 (ip), vehicle: saline with Tween-80 90 % of control | dose: 25.0 mg/kg/injection, schedule: Q01DX005 (ip), vehicle: saline with Tween-80 100 % of control | dose: 50.0 mg/kg/injection, schedule: Q01DX005 (ip), vehicle: saline with Tween-80 90 % of control | dose: 100.0 mg/kg/injection, schedule: Q01DX005 (ip), vehicle: saline with Tween-80 92 % of control | dose: 200.0 mg/kg/injection, schedule: Q01DX005 (ip), vehicle: saline with Tween-80 93 % of control

CCN(CC)C(=O)Nc1cc2c3c(c1)CCCN3CCC2
inactive: [15] 96 % of control | [14] 93 % of control | dose: 200.0 mg/kg/injection, schedule: Q04DX002 (ip), vehicle: saline with Tween-80 90 % of control | dose: 400.0 mg/kg/injection, schedule: Q04DX002 (ip), vehicle: saline with Tween-80 114 % of control

NC(C(=O)O)C(=O)c1ccccc1 (configuration not stated)
inactive: dose: 100.0 mg/kg/injection, schedule: Q01DX009 (ip), vehicle: saline sonified 101 % of control | dose: 100.0 mg/kg/injection, schedule: Q04DX003 (ip), vehicle: saline 102 % of control | dose: 200.0 mg/kg/injection, schedule: Q01DX009 (ip), vehicle: saline sonified 101 % of control | dose: 200.0 mg/kg/injection, schedule: Q04DX003 (ip), vehicle: saline 112 % of control | dose: 400.0 mg/kg/injection, schedule: Q01DX009 (ip), vehicle: saline sonified 106 % of control | dose: 400.0 mg/kg/injection, schedule: Q04DX003 (ip), vehicle: saline 100 % of control

CCCCCCCCCCCCC(C(=O)O)C1C=CCC1 (configuration not stated)
inactive: dose: 100.0 mg/kg/injection, schedule: Q01DX001 (ip), vehicle: other 95 % of control | dose: 200.0 mg/kg/injection, schedule: Q01DX001 (ip), vehicle: other 90 % of control | dose: 400.0 mg/kg/injection, schedule: Q01DX001 (ip), vehicle: other 101 % of control

COC1OC2COCOC2C(O)C1O (configuration not stated)
inactive: [8] 93 % of control and 104 % of control | [9] 108 % of control | [10] 100 % of control [middle of 4 runs] | dose: 200.0 mg/kg/injection, schedule: Q04DX002 (ip), vehicle: saline 106 % of control and 100 % of control | dose: 400.0 mg/kg/injection, schedule: Q04DX002 (ip), vehicle: saline 103 % of control and 100 % of control

CCN(CC)C(=S)Oc1ccc(OC(=S)N(CC)CC)cc1
inactive: dose: 12.5 mg/kg/injection, schedule: Q04DX002 (ip), vehicle: saline with Tween-80 93 % of control | dose: 25.0 mg/kg/injection, schedule: Q04DX002 (ip), vehicle: saline with Tween-80 97 % of control | [15] 93 % of control | [1] 89 % of control | [2] 91 % of control
